From patent publication US20190374533A1, “COMPOUNDS AND METHODS FOR INHIBITING NHE-MEDIATED ANTIPORT IN THE TREATMENT OF DISORDERS ASSOCIATED WITH FLUID RETENTION OR SALT OVERLOAD AND GASTROINTESTINAL TRACT DISORDERS” (Ardelyx, Inc., priority 2008, published 2019)
Structures can show the parent of a compound that is named as a salt. Where two headings read alike, the source gives them in different places.

Experiments:
[1] = Determination of compound remaining in feces; format: in vivo, rat; settings: 0.1 mg/kg oral gavage; for recovery in 72-hour fecal samples: three rats; for dose excreted: Sprague-Dawley, rat, faeces, po, 0.1 mg/kg, read-out: % Recovery ± SD from 72-hour fecal samples
Experimental: Sprague-Dawley rats were orally gavaged with test article. A low dose of compound (0.1 mg/kg) was selected so that feces would remain solid and practical to collect. For both Examples 202 and 203, three rats were dosed, and following dosage of compounds, the rats were placed in metabolic cages for 72 hours. After 72 hours, fecal samples were recovered and dried for 48 hours. Dried fecal samples were ground to a powdered from, and for each rat, 10 replicates of 50 mg samples were extracted with acetonitrile. Insoluble materials were removed by centrifugation and supernatants analyzed by LC/MS/MS and compared against a standard curve to determine compound concentration. The amount of compound actually dosed was determined by LC/MS/MS analysis of the dosing solutions. The total amount of compound present in the 72-hour fecal samples was compared to the total amount of compound dosed, and reported as percentage of total dose recovered.

human NHE3 = biological target: T1, human NHE3 (Homo sapiens, UniProt P48764); experiment: Cell-based assay of NHE-3 activity (persistent inhibition), human; settings: human Persistence assay; for IC50: 60 min incubation, washout, recovery initiated 10 min after washout
T1 construct: host or cells: PS120 fibroblasts
T1 sequence (P48764 26-834): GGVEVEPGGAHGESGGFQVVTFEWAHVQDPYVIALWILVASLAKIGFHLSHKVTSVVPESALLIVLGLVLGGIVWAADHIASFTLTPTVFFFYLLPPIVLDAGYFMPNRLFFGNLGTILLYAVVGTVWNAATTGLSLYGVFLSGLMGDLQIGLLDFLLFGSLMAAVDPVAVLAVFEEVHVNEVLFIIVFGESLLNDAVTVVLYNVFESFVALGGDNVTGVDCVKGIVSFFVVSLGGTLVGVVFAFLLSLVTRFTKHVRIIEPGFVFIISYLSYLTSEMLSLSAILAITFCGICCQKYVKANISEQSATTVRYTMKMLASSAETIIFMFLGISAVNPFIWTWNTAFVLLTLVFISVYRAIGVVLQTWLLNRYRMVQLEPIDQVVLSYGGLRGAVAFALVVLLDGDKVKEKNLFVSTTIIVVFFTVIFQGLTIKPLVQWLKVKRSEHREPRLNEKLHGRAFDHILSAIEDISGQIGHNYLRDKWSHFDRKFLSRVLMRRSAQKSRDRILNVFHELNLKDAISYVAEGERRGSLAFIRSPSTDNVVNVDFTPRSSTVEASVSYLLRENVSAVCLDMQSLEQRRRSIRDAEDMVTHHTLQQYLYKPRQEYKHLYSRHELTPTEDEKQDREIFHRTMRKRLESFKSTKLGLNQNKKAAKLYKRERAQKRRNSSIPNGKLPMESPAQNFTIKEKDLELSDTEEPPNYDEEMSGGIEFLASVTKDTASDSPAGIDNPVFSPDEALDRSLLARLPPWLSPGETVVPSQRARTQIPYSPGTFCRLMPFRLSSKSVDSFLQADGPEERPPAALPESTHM
T1 sequence (Q99653 2-195 partner limits assumed): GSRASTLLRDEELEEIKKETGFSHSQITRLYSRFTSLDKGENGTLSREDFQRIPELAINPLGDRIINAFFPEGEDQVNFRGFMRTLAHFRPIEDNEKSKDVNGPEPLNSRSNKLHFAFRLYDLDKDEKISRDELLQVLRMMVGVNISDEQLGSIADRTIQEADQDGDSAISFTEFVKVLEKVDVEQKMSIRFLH
Experimental: The ability of compounds to inhibit human and rat NHE-3-mediated Na^+-dependent H^+ antiport after application and washout was measured using a modification of the pH sensitive dye method described above. PS120 fibroblasts stably expressing human NHE3 and NHERF2 were obtained from Mark Donowitz (Baltimore, Md.). Opossum kidney (OK) cells were obtained from the ATCC and propagated per their instructions. The rat NHE-3 gene was introduced into OK cells via electroporation, and cells were seeded into 96 well plates and grown overnight. Medium was aspirated from the wells, cells were washed once with NaCl-HEPES buffer (100 mM NaCl, 50 mM HEPES, 10 mM glucose, 5 mM KCl, 2 mM CaCl2, 1 mM MgCl2, pH 7.4), then overlayed with NaCl-HEPES buffer containing 0-30 μM test compound. After a 60 min incubation at room temperature, the test drug containing buffer was aspirated from the cells. Following aspiration, cells were washed once with NaCl-HEPES buffer without drug, then incubated for 30 min at 37° C. with NH4Cl-HEPES buffer (20 mM NH4Cl, 80 mM NaCl, 50 mM HEPES, 5 mM KCl, 2 mM CaCl2, 1 mM MgCl2, pH 7.4) containing 5 μM BCECF-AM. Cells were washed once with Ammonium free, Na^+-free HEPES (100 mM choline, 50 mM HEPES, 10 mM glucose, 5 mM KCl, 2 mM CaCl2. 1 mM MgCl2. pH 7.4) and incubated in the same buffer for 10 minutes at room temperature to lower intracellular pH. NHE-3-mediated recovery of neutral intracellular pH was initiated (10 min after compound washout) by addition of Na-HEPES buffer. […] Changes in intracellular pH were monitored using a FLIPR Tetra® (Molecular Devices, Sunnyvale, Calif.) by excitation at λex 439 to 505 nm, and measuring BCECF fluorescence at λem 538 nm. The initial rate of the fluorescence ratio change was used as a measure of NHE-mediated Na^+/H^+ activity, and reported as the change in fluorescence ratio per minute.

fecal water content = experiment: Pharmacodynamic model: effect of test compounds on fecal water content; format: in vivo, rat; settings: female Sprague Dawley rats, 3 mg/kg oral, feces collected 16 hrs; for % Fecal water: mean of 6
Experimental: Normal female Sprague Dawlev rats (Charles-River laboratories international, Hollister, Calif.), 7-8 weeks old with body weight 175-200 g were acclimated for at least 3 days before proceeding to experiments. The animals were provided food (Harlan Teklad 2018c) and water ad lib, through the experiment. Animals were randomly grouped with 6 rats per group.
The experiments were initiated by orally dosing test compounds at 3 mg/kg in volume of 10 ml/kg. Rats from control group were gavaged with the same volume of vehicle (water). After dosing, rats were placed in metabolic cages for 16 hrs (overnight). Food and water consumption were monitored. After sixteen hours, feces and urine were collected. The percent of fecal water was measured by weighing fecal samples before and after drying.
Representative data of % fecal water content are shown in Table 12 (data are expressed as means, with 6 animals per data point). The differences between control and treated groups were evaluated by one way ANOVA with Dunnett post tests. Results are significant if p<0.05.

SMILES | recovery in 72-hour fecal samples [1] | dose excreted ([1]; Rat 1) | dose excreted ([1]; Rat 2) | dose excreted ([1]; Rat 3) | % inhibition (human NHE3) | IC50 (human NHE3) | % Fecal water (% of control) (fecal water content) | % Fecal water (fecal water content)
CN1Cc2c(Cl)cc(Cl)cc2[C@H](c2cccc(S(=O)(=O)NCCOCCOCCNC(=O)NCCCCNC(=O)NCCOCCOCCNS(=O)(=O)c3cccc([C@@H]4CN(C)Cc5c(Cl)cc(Cl)cc54)c3)c2)C1 (single isomer, unassigned) [Example 202, (S or R)—N,N′-(10,17-dioxo-3,6,21,24-tetraoxa-9,11,16,18-tetraazahexacosane-1,26-diyl)bis(3-((S)-6,8-dichloro-2-methyl-1,2,3,4-tetrahydroisoquinolin-4-yl)benzenesulfonamide) bis-hydrochloride salt] | near quantitative recovery | 93.8 ± 11.8% | 90.5 ± 5.5% | 92.4 ± 10.6% | C (>70%) | < 100 nM | 134% of control | 63%
CN1Cc2c(Cl)cc(Cl)cc2[C@H](c2cccc(S(=O)(=O)NCCOCCOCCNC(=O)Nc3ccc(NC(=O)NCCOCCOCCNS(=O)(=O)c4cccc([C@@H]5CN(C)Cc6c(Cl)cc(Cl)cc65)c4)cc3)c2)C1 (single isomer, unassigned) [Example 203, (S or R)—N,N′-(2,2′-(2,2′-(2,2′-(1,4-phenylenebis(azanediyl))bis(oxomethylene)bis(azanediyl)bis(ethane-2,1-diyl))bis(oxy)bis(ethane-2,1-diyl))bis(oxy)bis(ethane-2,1-diyl))bis(3-((S or R)-6,8-dichloro-2-methyl-1,2,3,4-tetrahydroisoquinolin-4-yl)benzenesulfonamide) bis-hydrochloride salt] | near quantitative recovery | 100 ± 6.7% | 75.8 ± 8.2% | 104 ± 7.1% | C (>70%) | < 100 nM | 130% of control | 61%
